According to PubChem BioAssay AID248 (DTP/NCI, 2004):
Values joined by “and” are separate entries in the source; they are usually repeats but may differ in a detail not shown here. Identical values can stand only once. Inconclusive results and toxic doses are left out. No stated cut-off is given here; in the data, active means T/C of 150% or more; inactive means T/C below 125%.

Tested on: L1210 leukemia ip in BDF1 mice, survival T/C
Experiment: NCI In Vivo Anticancer Drug Screen. Data for tumor model L1210 Leukemia (intraperitoneal) in B6D2F1 (BDF1) mice
Details: endpoint: mean survival time, higher = longer survival
Summary of the method: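 Antitumor effect is assessed in tumor-bearing animals. Survival in the compound arm is compared with a vehicle-dosed control arm and expressed as their quotient.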

[1] = dose: 100.0 mg/kg/injection, schedule: Q01DX001 (ip), vehicle: saline
[2] = dose: 200.0 mg/kg/injection, schedule: Q01DX001 (ip), vehicle: saline
[3] = dose: 400.0 mg/kg/injection, schedule: Q01DX001 (ip), vehicle: saline
[4] = dose: 100.0 mg/kg/injection, schedule: Q01DX001 (ip), vehicle: saline with Tween-80
[5] = dose: 100.0 mg/kg/injection, schedule: Q01DX009 (ip), vehicle: saline with Tween-80
[6] = dose: 100.0 mg/kg/injection, schedule: Q04DX003 (ip), vehicle: saline
[7] = dose: 200.0 mg/kg/injection, schedule: Q01DX001 (ip), vehicle: saline with Tween-80
[8] = dose: 200.0 mg/kg/injection, schedule: Q01DX009 (ip), vehicle: saline with Tween-80
[9] = dose: 200.0 mg/kg/injection, schedule: Q04DX003 (ip), vehicle: saline
[10] = dose: 400.0 mg/kg/injection, schedule: Q01DX001 (ip), vehicle: saline with Tween-80
[11] = dose: 400.0 mg/kg/injection, schedule: Q01DX009 (ip), vehicle: saline with Tween-80
[12] = dose: 400.0 mg/kg/injection, schedule: Q04DX003 (ip), vehicle: saline
[13] = dose: 100.0 mg/kg/injection, schedule: Q04DX002 (ip), vehicle: Klucel (hydroxypropylcellulose) (HPC)
[14] = dose: 200.0 mg/kg/injection, schedule: Q04DX002 (ip), vehicle: Klucel (hydroxypropylcellulose) (HPC)
[15] = dose: 400.0 mg/kg/injection, schedule: Q04DX002 (ip), vehicle: Klucel (hydroxypropylcellulose) (HPC)
[16] = dose: 100.0 mg/kg/injection, schedule: Q04DX003 (ip), vehicle: saline with Tween-80
[17] = dose: 200.0 mg/kg/injection, schedule: Q04DX003 (ip), vehicle: saline with Tween-80
[18] = dose: 400.0 mg/kg/injection, schedule: Q04DX003 (ip), vehicle: saline with Tween-80
[19] = dose: 100.0 mg/kg/injection, schedule: Q04DX003 (ip), vehicle: Klucel (hydroxypropylcellulose) (HPC)
[20] = dose: 100.0 mg/kg/injection, schedule: Q01DX001 (ip), vehicle: Klucel (hydroxypropylcellulose) (HPC)
[21] = dose: 200.0 mg/kg/injection, schedule: Q01DX001 (ip), vehicle: Klucel (hydroxypropylcellulose) (HPC)
[22] = dose: 25.0 mg/kg/injection, schedule: Q01DX009 (ip), vehicle: saline with Tween-80
[23] = dose: 50.0 mg/kg/injection, schedule: Q01DX009 (ip), vehicle: saline with Tween-80
[24] = dose: 100.0 mg/kg/injection, schedule: Q04DX002 (ip), vehicle: saline with Tween-80
[25] = dose: 200.0 mg/kg/injection, schedule: Q04DX002 (ip), vehicle: saline with Tween-80
[26] = dose: 400.0 mg/kg/injection, schedule: Q04DX002 (ip), vehicle: saline with Tween-80
[27] = dose: 50.0 mg/kg/injection, schedule: Q01DX001 (ip), vehicle: saline

Measured: T/C

Brc1c(Br)c(Br)c(Br)c(Br)c1Br
inactive: [1] 93 % of control | [2] 92 % of control | [3] 98 % of control

O=C(O)C1C2CC(O)C(C2)C1C(=O)O (stereo unspecified)
inactive: [4] 94 % of control | [5] 93 % of control | dose: 100.0 mg/kg/injection, schedule: Q01DX009 (ip), vehicle: saline 105 % of control | [6] 94 % of control | [7] 98 % of control | [8] 95 % of control | dose: 200.0 mg/kg/injection, schedule: Q01DX009 (ip), vehicle: saline 105 % of control | [9] 96 % of control | [10] 100 % of control | [11] 96 % of control | dose: 400.0 mg/kg/injection, schedule: Q01DX009 (ip), vehicle: saline 98 % of control | [12] 93 % of control

COc1cc(NC(=O)Nc2ccc(F)c(Cl)c2)c(OC)cc1Cl
inactive: [13] 100 % of control | [14] 93 % of control | [15] 86 % of control

Cc1ccc(S(=O)(=O)OC2C(C)C3C2S(=O)(=O)C3(C)C)cc1 (stereo unspecified)
inactive: [16] 102 % of control | [17] 104 % of control | [18] 102 % of control

O=C1NCCCC1O (stereo unspecified)
inactive: dose: 50.0 mg/kg/injection, schedule: Q01DX001 (ip), vehicle: carboxymethylcellulose (CMC) 94 % of control | dose: 100.0 mg/kg/injection, schedule: Q01DX001 (ip), vehicle: carboxymethylcellulose (CMC) 89 % of control | dose: 200.0 mg/kg/injection, schedule: Q01DX001 (ip), vehicle: carboxymethylcellulose (CMC) 105 % of control | dose: 400.0 mg/kg/injection, schedule: Q01DX001 (ip), vehicle: carboxymethylcellulose (CMC) 103 % of control

ClCCOCc1ccccc1
inactive: [19] 102 % of control | dose: 200.0 mg/kg/injection, schedule: Q04DX003 (ip), vehicle: Klucel (hydroxypropylcellulose) (HPC) 100 % of control | dose: 400.0 mg/kg/injection, schedule: Q04DX003 (ip), vehicle: Klucel (hydroxypropylcellulose) (HPC) 98 % of control

CC(C)CNNCC(C)C
inactive: dose: 75.0 mg/kg/injection, schedule: Q01DX001 (ip), vehicle: other 103 % of control

COc1ccccc1/C1=C/CCCCCC1
inactive: dose: 50.0 mg/kg/injection, schedule: Q01DX009 (ip), vehicle: acetone 90 % of control | dose: 100.0 mg/kg/injection, schedule: Q01DX009 (ip), vehicle: acetone 88 % of control | dose: 100.0 mg/kg/injection, schedule: Q04DX003 (ip), vehicle: acetone 100 % of control | dose: 200.0 mg/kg/injection, schedule: Q01DX009 (ip), vehicle: acetone 87 % of control | dose: 200.0 mg/kg/injection, schedule: Q04DX003 (ip), vehicle: acetone 92 % of control | dose: 400.0 mg/kg/injection, schedule: Q04DX003 (ip), vehicle: acetone 89 % of control

C=CCNC(=O)NCCSC(=O)SCCCC
inactive: [20] 103 % of control | [21] 100 % of control | dose: 400.0 mg/kg/injection, schedule: Q01DX001 (ip), vehicle: Klucel (hydroxypropylcellulose) (HPC) 100 % of control

Cc1cn2c(nc1=O)OC1CC2OC1CO (stereo unspecified)
inactive: dose: 100.0 mg/kg/injection, schedule: Q01DX005 (ip), vehicle: saline 122 % of control
active: dose: 200.0 mg/kg/injection, schedule: Q01DX005 (ip), vehicle: saline 152 % of control

Cc1ccc(NC(=O)COc2cc(Cl)c(Cl)cc2Cl)cc1C
inactive: [22] 89 % of control | [23] 97 % of control | [5] 89 % of control | [11] 94 % of control

Cc1ccc(C)c(NC(=O)OC/C=C/c2ccccc2)c1
inactive: dose: 100.0 mg/kg/injection, schedule: Q01DX009 (ip), vehicle: Klucel (hydroxypropylcellulose) (HPC) 88 % of control | dose: 200.0 mg/kg/injection, schedule: Q01DX009 (ip), vehicle: Klucel (hydroxypropylcellulose) (HPC) 86 % of control | dose: 400.0 mg/kg/injection, schedule: Q01DX009 (ip), vehicle: Klucel (hydroxypropylcellulose) (HPC) 86 % of control

COc1ccc(COC(=O)Nc2cc(OC)ccc2OC)cc1
inactive: [13] 101 % of control | [14] 101 % of control | [15] 107 % of control

NC(N)=NC(N)=Nc1cccc(Cl)c1
inactive: dose: 25.0 mg/kg/injection, schedule: Q01DX009 (ip), vehicle: Klucel (hydroxypropylcellulose) (HPC) 108 % of control and 88 % of control | dose: 50.0 mg/kg/injection, schedule: Q01DX009 (ip), vehicle: Klucel (hydroxypropylcellulose) (HPC) 94 % of control and 97 % of control | [20] 93 % of control | [19] 105 % of control | [21] 103 % of control

CCOC(=O)N/N=C/c1ccc(N(C)CCC#N)cc1
inactive: [4] 100 % of control | [24] 95 % of control and 107 % of control | [16] 102 % of control | [7] 103 % of control | [25] 96 % of control and 104 % of control | [17] 93 % of control and 98 % of control | [26] 98 % of control and 107 % of control | [18] 94 % of control and 96 % of control

CCN(CCS)Cc1ccccc1
inactive: [22] 95 % of control | dose: 25.0 mg/kg/injection, schedule: Q04DX003 (ip), vehicle: saline with Tween-80 94 % of control | [23] 97 % of control | dose: 50.0 mg/kg/injection, schedule: Q04DX003 (ip), vehicle: saline with Tween-80 91 % of control | [5] 95 % of control | [16] 91 % of control

Clc1cc2nc3[nH]c4ccccc4c3nc2cc1Cl
inactive: [1] 97 % of control

NC(=O)NOCc1cscn1
inactive: [1] 95 % of control | [2] 97 % of control | [3] 97 % of control

O=[N+]([O-])c1[nH]c(Cl)nc1Cl
inactive: dose: 25.0 mg/kg/injection, schedule: Q01DX001 (ip), vehicle: saline with Tween-80 97 % of control | dose: 50.0 mg/kg/injection, schedule: Q01DX001 (ip), vehicle: saline with Tween-80 103 % of control

O=S1(=O)C(Cl)c2ccccc2-c2ccccc2C1Cl (stereo unspecified)
inactive: dose: 25.0 mg/kg/injection, schedule: Q04DX002 (ip), vehicle: gum acacia 89 % of control | dose: 50.0 mg/kg/injection, schedule: Q04DX002 (ip), vehicle: gum acacia 89 % of control | dose: 100.0 mg/kg/injection, schedule: Q04DX002 (ip), vehicle: gum acacia 93 % of control

Cc1ccccc1OB(Oc1ccccc1C)Oc1ccccc1C
inactive: [1] 101 % of control | [2] 109 % of control | [3] 95 % of control

CC(=O)NC(C)(NC(=O)CCl)C(=O)O (stereo unspecified)
inactive: [4] 98 % of control | [5] 94 % of control and 108 % of control | [24] 96 % of control and 101 % of control | [16] 106 % of control | [7] 102 % of control | [8] 89 % of control and 90 % of control | [25] 93 % of control and 104 % of control | [17] 98 % of control | [10] 107 % of control | [11] 97 % of control | [26] 95 % of control and 101 % of control

O=[N+]([O-])c1ccc(OCCCOc2ccc(S(=O)(=O)F)cc2)cc1
inactive: [6] 102 % of control | [9] 102 % of control | [12] 106 % of control

CCCc1nc2ccccc2c(=O)n1/N=C/c1ccc(Cl)cc1Cl
inactive: [13] 96 % of control | [14] 92 % of control | [15] 103 % of control

CCSC1OC(COC(C)=O)C(OC(C)=O)C1NC(C)=O (stereo unspecified)
inactive: [27] 103 % of control | [1] 113 % of control | [2] 97 % of control | [3] 107 % of control

COc1cc(Cl)c(/C=C2\N=C(c3ccccc3)OC2=O)cc1OC
inactive: [27] 94 % of control | [1] 91 % of control | [2] 97 % of control | [3] 94 % of control
